Source: patent US20230233586A1, “COMPOUNDS AND METHODS FOR TREATING FUNGAL INFECTIONS” (Amplyx Pharmaceuticals, Inc., priority 2020, published 2023)

Assays:
[1] = tested on: Aspergillus fumigatus, Scedosporium prolificans, and Fusarium solani; test: 5-fluorouracil immunosuppressed mice with IMIs; assay type: in vivo
[2] = tested on: A. fumigatus, S. apiospermum, F. solani, and Rhizopus spp.; test: Cyclophosphamide and cortisone acetate immunosuppressed mice with IMIs; assay type: in vivo
[3] = Phase 1 studies in healthy volunteers, safety and tolerability; assay type: in vivo, human
Description: In Phase 1 clinical studies of compound 1, the safety, tolerability, and PK of single and multiple ascending doses administered intravenously (IV) and orally (PO) have been studied. To date, a total of 197 healthy volunteers and 21 patients with acute myeloid leukemia (AML) have received compound 1 across 5 Phase 1 studies. The duration of the multiple-dose regimens in these studies was 7, 14, and 42 days (6 weeks).
The majority of the TEAEs were mild, transitory, and resolved without intervention. […] This IV dose regimen is identical to the IV dose regimen that will be used in this study. […] This PO-dose regimen is higher than the 700 mg PO dose that will be used in this study.

Candida spp. [4] = test: Open-label study in non-neutropenic patients with candidemia; assay type: in vivo, human
Protocol: Suspicion of antifungal-resistant candidemia is sufficient and subsequent documented resistance is not required for enrollment. The Study Drug Treatment Period will be up to a maximum of 14 days (inclusive of the loading dose [Study Day 1]). […] There will be a Follow-up Period of 4 weeks (+4 days) after EOT. The total duration of participation in the study is up to approximately 7.5 weeks (inclusive of the Screening Period [≤96 hours prior to Baseline]).
Patients with a yeast identified in a blood culture or a positive rapid diagnostic method are eligible to be consented and screened for the study. Patients must have at least 1 positive blood test for Candida spp. (or yeast suspected to be Candida) for a diagnosis of candidemia to be considered for enrollment into the study. Patients with a positive blood culture showing yeast suspected to be Candida must have identification of Candida spp. from positive blood culture confirmed prior to dosing. Screening and Baseline procedures and the start of Compound 1 study drug will be initiated within 96 hours from the time that the SOC blood sample for the Candida spp. positive culture or rapid diagnostic test was drawn. Patients with 2 days (>48 hours) equivalent of prior systemic antifungal treatment at approved doses to treat the current episode of candidemia within 96 hours before first dose will be excluded.
On Study Day 1 (or over the first 24 hours if started in the evening), a 1000 mg Compound 1 loading dose will be administered over 3 hours by IV infusion BID. On Study Days 2 and 3 of study drug, a 600 mg Compound 1 maintenance dose will be administered over 3 hours by IV infusion QD. On Study Day 4 and onward, the Compound 1 maintenance dose will be administered as either 600 mg Compound 1 IV infusion QD over 3 hours or 700 mg PO QD. […] Study drug will be administered for a maximum of 14 days. […] Candida spp. bloodstream infection will be monitored by daily blood culture during Study Drug Treatment until 2 consecutive blood cultures are negative, and at EOST, EOT, and 2 and 4 weeks after EOT, or Early Termination. Simultaneously drawn blood samples will be collected for Candida testing by T2 magnetic resonance (T2MR) assay at Baseline, during Study Drug Treatment, and EOST, or Early Termination. Other cultures, histopathology, and imaging tests to assess the site(s) and extent of candidemia infection at other sites will be conducted as clinically indicated, and the results should be recorded in the electronic Case Report Form (eCRF). The management of intravascular catheters, intravascular devices, and, if applicable, any drains will be recorded, including any associated microbiology results. Patients will be monitored for safety throughout the duration of the study.
On Study Day 1 (or over the first 24 hours if started in the evening), a 1000 mg Compound 1 loading dose will be administered over 3 hours by IV infusion BID. On Study Days 2 and 3 of study drug, a 600 mg Compound 1 maintenance dose will be administered over 3 hours by IV infusion QD. On Study Day 4 and onward, the Compound 1 maintenance dose will be administered as either 600 mg Compound 1 IV infusion QD over 3 hours or 700 mg PO QD. […] Study drug will be administered for a maximum of 14 days (inclusive of the loading dose [Study Day 1]). Tablets are to be administered at the same time each day, whole, and taken by mouth with water within 30 minutes of being removed from the refrigerator. No splitting or crushing of tablets is allowed.
If applicable, an assessment of efficacy will also be made at the end of this antifungal treatment at EOT.
Eradication is defined as a negative blood culture(s) for Candida spp. in the absence of additional antifungal therapy (except for protocol-allowed step-down treatment [e.g., fluconazole]) through EOT

Candida spp. [5] = test: In vitro activity against Candida spp. isolates from the study; assay type: cell-based; conditions: including isolates resistant to other antifungal agents
Description: A total of 21 patients were enrolled in the study: 20 were included in the mITT. Median duration of Compound 1 therapy was 11 days (range 5 to 14). All patients received IV Compound 1, 48% (10/21) received PO Compound 1.

Tissue distribution = assay type: in vivo; conditions: IV and PO formulations
Description: Compound 1 has a novel mechanism of action with broad spectrum activity against Candida spp. (yeast) and Aspergillus spp. (mold), including activity against polyene and azole-resistant strains of Aspergillus spp. […] Compound 1 has the potential to be used as a first-line agent for the treatment of IMIs through a unique mechanism of action. Thus, compound 1 has potential to fill an unmet need for patients with limited or no antifungal treatment options due to documented/anticipated resistance, contraindication, intolerance, or lack of clinical response to standard of care (SOC) antifungal therapy.

[6] = in vivo
[7] = molecular target: fungal glycosylphosphatidylinositol (GPI)-anchored wall transfer protein 1 (GWT1) enzyme (Saccharomyces cerevisiae, UniProt P47026); test: Inhibition of fungal GWT1 enzyme; assay type: biochemical
Description: (§1) Compound 1A inhibits the fungal glycosylphosphatidylinositol (GPI)-anchored wall transfer protein 1 (GWT1) enzyme, a highly conserved inositol acylase that catalyzes an early step in the GPI-anchored biosynthesis pathway. This inhibition has pleiotropic effects on the fungal cell due to inhibition of cell wall mannoprotein localization, which comprises cell wall integrity, biofilm formation, germ tube formation, and fungal growth.

[8] = molecular target: T1, phosphatidylinositol glycan anchor biosynthesis class W (PIGW) protein (Homo sapiens, UniProt Q7Z7B1); test: Inhibition of PIGW, closest mammalian ortholog of GWT1; assay type: biochemical; conditions: closest mammalian ortholog of fungal GWT1
T1 sequence (Q7Z7B1 1-504): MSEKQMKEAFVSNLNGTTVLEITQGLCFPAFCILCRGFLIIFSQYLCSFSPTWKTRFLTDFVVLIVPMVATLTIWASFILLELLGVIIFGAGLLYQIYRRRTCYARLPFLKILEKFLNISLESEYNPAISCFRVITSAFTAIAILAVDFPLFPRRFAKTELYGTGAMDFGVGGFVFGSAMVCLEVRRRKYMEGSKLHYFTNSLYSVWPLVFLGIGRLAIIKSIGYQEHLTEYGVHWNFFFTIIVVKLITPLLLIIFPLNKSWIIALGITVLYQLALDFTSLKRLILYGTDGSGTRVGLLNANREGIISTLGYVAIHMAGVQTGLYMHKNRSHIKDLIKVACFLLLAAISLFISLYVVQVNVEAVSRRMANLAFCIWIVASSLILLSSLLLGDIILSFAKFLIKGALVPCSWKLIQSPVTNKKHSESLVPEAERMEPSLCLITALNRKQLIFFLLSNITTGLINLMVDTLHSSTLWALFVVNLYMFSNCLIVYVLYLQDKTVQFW
Description: as §1

[9] = tested on: Candida spp., Cryptococcus spp., Aspergillus spp., Scedosporium spp., Fusarium spp., and some Mucorales fungi; test: In vitro antifungal activity; assay type: cell-based; conditions: including azole- and echinocandin-resistant strains
[10] = tested on: clinical isolates of rare mold infections and rare yeast infections; test: Antifungal activity against clinical isolates of rare mold and rare yeast infections; assay type: cell-based; conditions: broad range of clinical isolates of rare mold and rare yeast infections
Description: These rare mold and rare yeast species generally pose no threat to healthy subjects, but can lead to invasive mold infections in immunocompromised individuals.

[11] = patients with renal insufficiency
[12] = patients with renal insufficiency (n=14)

fungal glycosylphosphatidylinositol (GPI)-anchored wall transfer protein 1 (GWT1) enzyme, sequence (P47026 whole entry): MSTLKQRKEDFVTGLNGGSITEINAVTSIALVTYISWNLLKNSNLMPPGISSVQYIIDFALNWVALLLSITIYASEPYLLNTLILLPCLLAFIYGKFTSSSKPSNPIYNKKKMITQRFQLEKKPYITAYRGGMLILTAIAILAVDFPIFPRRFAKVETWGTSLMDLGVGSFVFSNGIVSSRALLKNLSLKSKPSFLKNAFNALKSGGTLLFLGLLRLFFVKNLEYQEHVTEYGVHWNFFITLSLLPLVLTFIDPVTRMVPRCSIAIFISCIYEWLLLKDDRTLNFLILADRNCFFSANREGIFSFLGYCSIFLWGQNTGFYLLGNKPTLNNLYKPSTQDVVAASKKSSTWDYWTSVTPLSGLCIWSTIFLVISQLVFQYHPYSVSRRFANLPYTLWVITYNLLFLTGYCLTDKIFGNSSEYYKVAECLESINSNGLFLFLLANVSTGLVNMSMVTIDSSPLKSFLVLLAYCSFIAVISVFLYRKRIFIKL

## Nc1c(-c2cc(Cc3ccc(COc4ccccn4)cc3)no2)ccc[n+]1COP(=O)([O-])O [Compound 1]
[1]
  pulmonary fungal colony counts: reduced pulmonary fungal colony counts
  survival rates: statistically significantly improved survival rates
[2]
  fungal burden: reduced fungal burden
  survival rates: statistically significantly improved survival rates
[3]; 2 Phase 1 studies, healthy volunteers
  DLTs: No DLTs were observed
[3]; 2 Phase 1 studies, healthy volunteers, IV and PO formulations
  safety and tolerability: safe and well tolerated
[3]; FIH Phase 1: 1000 mg IV 2-hour infusion BID Day 1, then 600 mg IV 1-hour infusion QD Days 2 through 7
  safety and tolerability: safe and well tolerated
[3]; second Phase 1 study: 1000 mg PO QD Days 1 through 14
  safety and tolerability: safe and well tolerated
Candida spp. [4]; mITT (16/20)
  DRC-assessed success rate at EOST: 80%
Candida spp. [4]; mITT (17/20)
  Survival at day 30: 85%
Candida spp. [4]; patients with candidemia, up to 14 days
  tolerability: well-tolerated with no treatment-related serious adverse events or discontinuations
Candida spp. [4]; [11]
  effect of renal impairment on exposure: did not increase exposure
  treatment-related adverse events: no treatment-related adverse events
Candida spp. [4]; patients with renal insufficiency (12/14)
  Treatment success rate at EOST: 86%
Candida spp. [4]; [12]
  worsening of renal function at EOST: None
  worsening of renal function during the follow-up period: 4 patients
Candida spp. [5]
  in vitro activity against Candida spp. from the study: potent in vitro activity
Tissue distribution
  tissue distribution: wide-tissue distribution, including the eye and central nervous system
[6]
  conversion of prodrug to compound 1A: rapidly converted in vivo

## Nc1ncccc1-c1cc(Cc2ccc(COc3ccccn3)cc2)no1 [Compound 1A]
[7]
  inhibition of fungal GWT1 enzyme: inhibits
[8]
  inhibition of PIGW protein: does not inhibit
[9]
  in vitro antifungal activity: broad in vitro antifungal activity
[10]
  antifungal activity against clinical isolates: demonstrated antifungal activity
[1]
  pulmonary fungal colony counts: reduced pulmonary fungal colony counts
  survival rates: statistically significantly improved survival rates
